Columns and labels:
[1] = Thermal stability of films (chromaticity): ΔE before and after hard baking; assay type: physicochemical; settings: for ΔEab after baking at 230° C. for 1 h: dye in alkaline soluble acrylic resin film on glass, hard baked at 230° C. under air for 1 h, CIE Lab, D65/10
Procedure: 1.15 g of alkaline soluble acrylic resin solution (MIPHOTO RPR4022, supplied from Miwan Commercial Co., Ltd., 40 wt % of solid content in methyl 3-methoxypropionate) was mixed with 1.73 g of PGMEA (60 wt %). 0.189 g of Dye 1 was mixed in the alkaline soluble resin/PGMEA solution and stirred for 2 hours at room temperature using a shaker. The solution was filtered through a 0.45 μm PTFE filter to remove large particles. Then the filtered solution was spin coated onto a clean glass substrate with 400 rpm spin speed for 18 seconds. The obtained film was first dried at 90° C. under air atmosphere for 30 minutes, and then hard baked at 230° C. under air atmosphere for 1 hour. The CIE values (xyY values and lab values) and the transmittance were measured before and after the hard bake.
(4) Thermal Stability of Films (Chromaticity):
The wet film after spin coating is dried in oven at 90° C. for 30 minutes and then soft baked at 150° C. for 15 minutes. The chromaticity coordinates (L, a, b) are recorded with UltraScan Pro (Hunterlab) colorimeter. D65/10 light source is used and results are based on CIE Lab coordinates. After that the film is hard baked at target temperature (230° C.) for 1 hour and the new chromaticity coordinates (L′, a′, b′) are recorded with the method above. The thermal stability of a film is indicated by the difference of chromaticity coordinate before and after hard baking represented by the following formula;
ΔE=√{square root over ((L−L′)^2+(a−a′)^2+(b−b′)^2)}

Solubility in PGMEA = assay type: physicochemical; settings: for Solubility in PGMEA: solvent PGMEA (propylene glycol monomethyl ether acetate)
[2] = comparison in words, referring to Table 1

Row | SMILES | ΔEab after baking at 230° C. for 1 h [1] | Solubility in PGMEA (Solubility in PGMEA) [wt %] | thermal stability compared with the Comparative Examples [1, 2] | solubility in PEGMEA compared with the Comparative Examples (Solubility in PGMEA; [2])
1 | Cc1cc(C)c(Nc2ccc(Nc3c(C)cc(O)cc3C)c3c2C(=O)c2ccccc2C3=O)c(C)c1 [(1-((4-hydroxy-2,6-dimethylphenyl)amino)-4-(mesitylamino)-anthraquinone] | 6.8 | 3.0 | – | –
2 | C=CCN(CC=C)C(=O)COc1cc(C)c(Nc2ccc(Nc3c(C)cc(C)cc3C)c3c2C(=O)c2ccccc2C3=O)c(C)c1 [Dye 1, N,N-diallyl-acetamide modified anthraquinone] | 2.1 | 6.2 | significant improvement | significant improvement
3 | CC(C)Nc1ccc(NC(C)C)c2c1C(=O)c1ccccc1C2=O [Solvent Blue 36] | 33 (color almost | 1.9 | – | –
4 | Cc1cc(C)c(Nc2ccc(Nc3c(C)cc(C)cc3C)c3c2C(=O)c2ccccc2C3=O)c(C)c1 [Solvent Blue 104, 1,4-bis(mesitylamino)anthraquinone] | 7.9 | 0.6 | – | –

From patent US20170137625A1, “ANTHRAQUINONE COMPOUND USED FOR COLOR FILTER OF LCD” (Dow Global Technologies LLC, priority 2014, published 2017)
